The values below come from ChEMBL document CHEMBL5365497, “Developing Novel Coumarin-Containing Azoles Antifungal Agents by the Scaffold Merging Strategy for Treating Azole-Resistant Candidiasis” (J Med Chem, 2023).

Converted amounts (≈) assume the structure as drawn.

Format in all cases: functional
The test system of experiment [1] is Candida albicans. Nature of the experiment: Antifungal activity against Candida albicans CPCC400616 assessed as fungal growth inhibition by CLSI based microdilution method.
Experiment [2] relates to Candida albicans. Nature of the experiment: Antifungal activity against Candida albicans SC5314 assessed as fungal growth inhibition by CLSI based microdilution method. In general terms: Dilution methods test growth across graded concentrations, often in twofold steps.
Experiment [3] concerns Candida parapsilosis. Nature of the experiment: Antifungal activity against Candida parapsilosis assessed as fungal growth inhibition by CLSI based microdilution method. The settings on record: Lodderomyces parapsilosis.
Experiment [4] relates to Nakaseomyces glabratus. Nature of the experiment: Antifungal activity against Candida glabrata assessed as fungal growth inhibition by CLSI based microdilution method.
Experiment [5] deals with Pichia kudriavzevii. Nature of the experiment: Antifungal activity against Pichia kudriavzevii assessed as fungal growth inhibition by CLSI based microdilution method.
Experiment [6] deals with Candida tropicalis. Nature of the experiment: Antifungal activity against Candida tropicalis assessed as fungal growth inhibition by CLSI based microdilution method.
In experiment [7] the test system is Cryptococcus neoformans. Nature of the experiment: Antifungal activity against Cryptococcus neoformans assessed as fungal growth inhibition by CLSI based microdilution method.
The test system of experiment [8] is Candida albicans. Nature of the experiment: Antifungal activity against fluconazole-resistant Candida albicans CaR assessed as fungal growth inhibition by CLSI based microdilution method.
In experiment [9] the test system is Candida albicans. Nature of the experiment: Antifungal activity against fluconazole-resistant Candida albicans 17# assessed as fungal growth inhibition by CLSI based microdilution method.
For experiment [10], the system named is Candida albicans. Nature of the experiment: Antifungal activity against fluconazole-resistant Candida albicans 632 assessed as fungal growth inhibition by CLSI based microdilution method.
Experiment [11] relates to Candida albicans. Nature of the experiment: Antifungal activity against fluconazole-resistant Candida albicans 904 assessed as fungal growth inhibition by CLSI based microdilution method.
Experiment [12] concerns Candida albicans. Nature of the experiment: Antifungal activity against fluconazole-resistant Candida albicans 901 assessed as fungal growth inhibition by CLSI based microdilution method.

By MIC is commonly meant the lowest concentration found to suppress growth.

Consider `O=c1ccc2cc(COC(Cn3cnnn3)c3ccc(F)cc3F)ccc2o1` (stereo unspecified), for which the MIC in [1] stood at 1 µg/mL (≈ 2.6 µM); in experiment [2], 2 µg/mL (≈ 5.2 µM); in experiment [3], 16 µg/mL (≈ 41.6 µM); in [4], 16 µg/mL (≈ 41.6 µM); in experiment [5], 128 µg/mL (≈ 333 µM); in experiment [6], 0.5 µg/mL (≈ 1.3 µM). Besides, the MIC in [7] is 64 µg/mL (≈ 167 µM).
With `COc1cccc2cc(COC(Cn3ccnc3)c3ccc(F)cc3F)c(=O)oc12` (stereo unspecified), the MIC in [1] amounted to 0.25 µg/mL (≈ 0.606 µM); in experiment [2], 0.25 µg/mL (≈ 0.606 µM); in experiment [3] it was 0.06 µg/mL (≈ 0.145 µM); in experiment [4], 4 µg/mL (≈ 9.7 µM); in experiment [5], 2 µg/mL (≈ 4.85 µM); in [6], 32 µg/mL (≈ 77.6 µM). Further, the MIC in [7] was determined as 0.06 µg/mL (≈ 0.145 µM).
Turning to `O=c1ccc2cc(COC(Cn3ccnn3)c3ccc(Cl)cc3Cl)ccc2o1` (stereo unspecified), the MIC in [1] is more than 128 µg/mL; in experiment [2], 128 µg/mL (≈ 307 µM); in experiment [3], 64 µg/mL (≈ 154 µM); in experiment [4], 64 µg/mL (≈ 154 µM); in experiment [5] it was 128 µg/mL (≈ 307 µM); in [6], 64 µg/mL (≈ 154 µM). Further, the MIC in [7] is 128 µg/mL (≈ 307 µM).
Turning to `O=c1ccc2cc(COC(Cn3ccnc3)c3ccc(F)cc3)ccc2o1` (stereo unspecified), the minimum inhibitory concentration (MIC) in [1] turned out to be 2 µg/mL (≈ 5.49 µM); in [2] it was 0.5 µg/mL (≈ 1.37 µM); in experiment [3], 4 µg/mL (≈ 11 µM); in experiment [4] it was 32 µg/mL (≈ 87.8 µM); in experiment [5], 64 µg/mL (≈ 176 µM); in experiment [6], 8 µg/mL (≈ 22 µM). The MIC in experiment [7] is 64 µg/mL (≈ 176 µM); in experiment [8] it was 128 µg/mL (≈ 351 µM); in [9], 128 µg/mL (≈ 351 µM); in experiment [10] it was 64 µg/mL (≈ 176 µM); in experiment [11], 32 µg/mL (≈ 87.8 µM); in [12], 64 µg/mL (≈ 176 µM).
In the case of `O=c1oc2ccc(F)cc2cc1COC(Cn1ccnc1)c1ccc(F)cc1F` (stereo unspecified), the MIC was 1 µg/mL (≈ 2.5 µM) in [1]; 1 µg/mL (≈ 2.5 µM) in experiment [2]; 0.5 µg/mL (≈ 1.25 µM) in experiment [3]; 2 µg/mL (≈ 5 µM) in [4]; 4 µg/mL (≈ 9.99 µM) in [5]; 8 µg/mL (≈ 20 µM) in [6]. Also, in experiment [7], the minimum inhibitory concentration (MIC) is 0.5 µg/mL (≈ 1.25 µM).
Turning to `O=c1oc2c(Cl)cc(Cl)cc2cc1COC(Cn1ccnc1)c1ccc(Cl)cc1Cl` (stereo unspecified), the MIC is more than 128 µg/mL in experiment [1]; 128 µg/mL (≈ 264 µM) in experiment [2]; more than 128 µg/mL in experiment [3]; more than 128 µg/mL in [4]; more than 128 µg/mL in experiment [5]; more than 128 µg/mL in experiment [6]. Further, the MIC in experiment [7] amounted to 16 µg/mL (≈ 33 µM).
With `C[C@@H](c1ncncc1F)[C@](O)(Cn1cncn1)c1ccc(F)cc1F` [VORICONAZOLE], the MIC in experiment [8] was more than 128 µg/mL; in [9] it was 128 µg/mL (≈ 366 µM); in experiment [10] it was 64 µg/mL (≈ 183 µM); in experiment [11], more than 128 µg/mL; in experiment [12] it was more than 128 µg/mL.
As for `COc1cccc2cc(COC(Cn3ccnc3)c3ccc(Cl)cc3Cl)c(=O)oc12` (stereo unspecified), the MIC in [1] is 0.25 µg/mL (≈ 0.561 µM); in [2], 0.25 µg/mL (≈ 0.561 µM); in [3] it was 0.5 µg/mL (≈ 1.12 µM); in experiment [4], 32 µg/mL (≈ 71.9 µM); in experiment [5], 32 µg/mL (≈ 71.9 µM); in [6], 128 µg/mL (≈ 287 µM). In [7], the MIC came out at 0.5 µg/mL (≈ 1.12 µM).
Take `O=c1oc2ccc([N+](=O)[O-])cc2cc1COC(Cn1ccnc1)c1ccc(Cl)cc1Cl` (stereo unspecified): the minimum inhibitory concentration (MIC) in experiment [1] was more than 128 µg/mL; in experiment [2], 64 µg/mL (≈ 139 µM); in experiment [3], more than 128 µg/mL; in experiment [4], 128 µg/mL (≈ 278 µM); in [5], more than 128 µg/mL; in experiment [6] it was more than 128 µg/mL. Besides, the MIC in experiment [7] worked out at 128 µg/mL (≈ 278 µM).
For `O=c1oc2ccccc2cc1COC(Cn1cncn1)c1ccc(Cl)cc1Cl` (stereo unspecified), the minimal inhibitory concentration (MIC) was determined as 4 µg/mL (≈ 9.61 µM) in [1]; 0.25 µg/mL (≈ 0.601 µM) in [2]; 4 µg/mL (≈ 9.61 µM) in experiment [3]; 8 µg/mL (≈ 19.2 µM) in experiment [4]; 32 µg/mL (≈ 76.9 µM) in experiment [5]; 16 µg/mL (≈ 38.4 µM) in experiment [6]. Also, the MIC in [7] turned out to be 16 µg/mL (≈ 38.4 µM).
Consider `O=c1oc2ccccc2cc1COC(Cn1cncn1)c1ccc(F)cc1F` (stereo unspecified), for which the MIC was 8 µg/mL (≈ 20.9 µM) in experiment [1]; 0.25 µg/mL (≈ 0.652 µM) in experiment [2]; 2 µg/mL (≈ 5.22 µM) in experiment [3]; 8 µg/mL (≈ 20.9 µM) in experiment [4]; 16 µg/mL (≈ 41.7 µM) in experiment [5]; 64 µg/mL (≈ 167 µM) in experiment [6]. Also, the MIC in [7] was found to be 32 µg/mL (≈ 83.5 µM).
Regarding `O=c1oc2c(Cl)cc(Cl)cc2cc1COC(Cn1ccnc1)c1ccc(F)cc1` (stereo unspecified), the minimum inhibitory concentration (MIC) in experiment [1], in experiment [2], in experiment [3], in experiment [4], in experiment [5] and in experiment [6] was more than 128 µg/mL throughout. For the same compound, the MIC in [7] came out at 128 µg/mL (≈ 295 µM).
As for `O=c1oc2ccccc2cc1COC(Cn1ccnn1)c1ccc(F)cc1F` (stereo unspecified), the MIC was more than 128 µg/mL in experiment [1]; 128 µg/mL (≈ 334 µM) in experiment [2]; more than 128 µg/mL in experiment [3]; more than 128 µg/mL in experiment [4]; 64 µg/mL (≈ 167 µM) in [5]; more than 128 µg/mL in experiment [6]. For the same compound, the minimal inhibitory concentration (MIC) in [7] came to 64 µg/mL (≈ 167 µM).
Take `O=c1oc2ccc(Cl)cc2cc1COC(Cn1ccnc1)c1ccc(F)cc1F` (stereo unspecified): the MIC was found to be 32 µg/mL (≈ 76.8 µM) in experiment [1]; 0.25 µg/mL (≈ 0.6 µM) in experiment [2]; 16 µg/mL (≈ 38.4 µM) in experiment [3]; 128 µg/mL (≈ 307 µM) in experiment [4]; 128 µg/mL (≈ 307 µM) in experiment [5]; 128 µg/mL (≈ 307 µM) in experiment [6]. Further, the MIC in experiment [7] was determined as 16 µg/mL (≈ 38.4 µM).
